This is an account of results in patent publication US20170253562A1, “Nampt Inhibitors” (AbbVie Inc., priority 2011, published 2017).

The assay concerns the target recombinant, human, C-terminally-His tagged NAMPT (Homo sapiens, UniProt P43490). Put plainly: Time-Resolved Fluorescence Resonance Energy Transfer (TR-FRET) binding assay of NAMPT. To be noted: 6.8 nM NAMPT, 200 nM probe (Oregon Green 488-conjugated APO866), 2-3 hours. As to the method: Time-Resolved Fluorescence Resonance Energy Transfer (TR-FRET) Binding Assay of NAMPT
Plates were read with Envision (Laser Lantha low volume protocol) after 2 to 3 hours.
For orientation: TR-FRET usually uses a lanthanide donor and a delayed reading to cut background.

recombinant, human, C-terminally-His tagged NAMPT, sequence (P43490 whole entry): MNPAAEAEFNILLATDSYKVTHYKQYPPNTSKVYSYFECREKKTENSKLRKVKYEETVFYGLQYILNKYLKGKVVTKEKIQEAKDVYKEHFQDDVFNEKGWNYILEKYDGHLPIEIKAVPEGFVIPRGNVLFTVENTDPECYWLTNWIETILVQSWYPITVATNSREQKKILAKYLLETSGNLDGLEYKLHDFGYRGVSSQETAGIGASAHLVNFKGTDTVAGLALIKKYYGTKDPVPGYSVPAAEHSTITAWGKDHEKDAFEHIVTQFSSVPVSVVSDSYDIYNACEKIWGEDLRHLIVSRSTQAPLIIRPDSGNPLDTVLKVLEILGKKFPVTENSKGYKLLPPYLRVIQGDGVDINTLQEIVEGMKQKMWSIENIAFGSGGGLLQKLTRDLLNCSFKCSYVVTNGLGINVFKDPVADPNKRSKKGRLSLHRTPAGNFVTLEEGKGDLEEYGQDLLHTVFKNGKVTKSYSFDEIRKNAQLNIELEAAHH

Take `O=C(Nc1ccc(C(=O)N2CC3(CCCNC3)C2)nn1)N1Cc2ccccc2C1` [Example 28, N-[6-(2,6-diazaspiro[3.5]non-2-ylcarbonyl)pyridazin-3-yl]-1,3-dihydro-2H-isoindole-2-carboxamide]: the concentration for half-maximal inhibition (IC50) was 3150 nM.
In the case of `O=C(Nc1ccc(C(=O)N2CC3(CCCCO3)C2)nn1)N1Cc2ccccc2C1` [Example 46, N-[6-(5-oxa-2-azaspiro[3.5]non-2-ylcarbonyl)pyridazin-3-yl]-1,3-dihydro-2H-isoindole-2-carboxamide], the IC50 is 261 nM.
In the case of `N#CC1COC2(CCN(C(=O)c3ccc(NC(=O)N4Cc5ccccc5C4)nn3)CC2)C1` (stereo not shown) [Example 17, N-{6-[(3-cyano-1-oxa-8-azaspiro[4.5]dec-8-yl)carbonyl]pyridazin-3-yl}-1,3-dihydro-2H-isoindole-2-carboxamide] it was 158 nM.
Turning to `O=C(NCc1nnn2c1CNCCC2)c1ccc(NC(=O)N2Cc3ccccc3C2)nn1` [Example 49, N-{6-[(5,6,7,8-tetrahydro-4H-[1,2,3]triazolo[1,5-a][1,4]diazepin-3-ylmethyl)carbamoyl]pyridazin-3-yl}-1,3-dihydro-2H-isoindole-2-carboxamide], the concentration for half-maximal inhibition (IC50) was determined as 4700 nM.
In the case of `O=C(NCc1nnc2n1CCCNC2)c1ccc(NC(=O)N2Cc3ccccc3C2)nn1` [Example 39, N-{6-[(6,7,8,9-tetrahydro-5H-[1,2,4]triazolo[4,3-a][1,4]diazepin-3-ylmethyl)carbamoyl]pyridazin-3-yl}-1,3-dihydro-2H-isoindole-2-carboxamide], the 50% inhibitory concentration (IC50) was found to be 3260 nM.
Regarding `O=C(Nc1ccc(C(=O)N2CC3CCOC3C2)nn1)N1Cc2ccccc2C1` (stereo not shown) [Example 11, N-[6-(hexahydro-5H-furo[2,3-c]pyrrol-5-ylcarbonyl)pyridazin-3-yl]-1,3-dihydro-2H-isoindole-2-carboxamide], the IC50 stood at 270 nM.
Consider `O=C(NCCN1CCNC1=O)c1ccc(NC(=O)N2Cc3ccccc3C2)cc1` [Example 3, N-(4-{[2-(2-oxoimidazolidin-1-yl)ethyl]carbamoyl}phenyl)-1,3-dihydro-2H-isoindole-2-carboxamide], for which the half-maximal inhibitory concentration (IC50) is 32.6 nM.
For `O=C(NC[C@H]1CC2CNCCN2C1)c1ccc(NC(=O)N2Cc3ccccc3C2)nn1` (stereo partly drawn) [Example 27, N-(6-{[(7R)-octahydropyrrolo[1,2-a]pyrazin-7-ylmethyl]carbamoyl}pyridazin-3-yl)-1,3-dihydro-2H-isoindole-2-carboxamide], the IC50 worked out at 602 nM.
For the molecule `O=C(Nc1ccc(C(=O)N2CCC3(CCNCC3)C2)nn1)N1Cc2ccccc2C1` [Example 35, N-[6-(2,8-diazaspiro[4.5]dec-2-ylcarbonyl)pyridazin-3-yl]-1,3-dihydro-2H-isoindole-2-carboxamide], the IC50 was found to be 404 nM.
With `O=C(NCC1COC2(CCNCC2)C1)c1ccc(NC(=O)N2Cc3ccccc3C2)cc1` (stereo not shown) [Example 7, N-{4-[(1-oxa-8-azaspiro[4.5]dec-3-ylmethyl)carbamoyl]phenyl}-1,3-dihydro-2H-isoindole-2-carboxamide], the half-inhibitory concentration (IC50) came to 7.39 nM.
On to `O=C(Nc1ccc(C(=O)N2CCOC3(CCOC3)C2)nn1)N1Cc2ccccc2C1` (stereo not shown) [Example 12, N-[6-(2,6-dioxa-9-azaspiro[4.5]dec-9-ylcarbonyl)pyridazin-3-yl]-1,3-dihydro-2H-isoindole-2-carboxamide], for which the IC50 stood at 2050 nM.
For the molecule `O=C(Nc1ccc(C(=O)N2CCC3(CCNCC3)CC2)nn1)N1Cc2ccccc2C1` [Example 21, N-[6-(3,9-diazaspiro[5.5]undec-3-ylcarbonyl)pyridazin-3-yl]-1,3-dihydro-2H-isoindole-2-carboxamide], the IC50 stood at 101 nM.
`O=C(Nc1ccc(C(=O)N2CCCC3(CCNC3)C2)nn1)N1Cc2ccccc2C1` (stereo not shown) [Example 22, N-[6-(2,7-diazaspiro[4.5]dec-7-ylcarbonyl)pyridazin-3-yl]-1,3-dihydro-2H-isoindole-2-carboxamide]: the IC50 was found to be 1270 nM.
For the molecule `O=C(NC1[C@H]2CNC[C@@H]12)c1ccc(NC(=O)N2Cc3ccccc3C2)nn1` (stereo partly drawn) [Example 26, N-{6-[(1R,5S)-3-azabicyclo[3.1.0]hex-6-ylcarbamoyl]pyridazin-3-yl}-1,3-dihydro-2H-isoindole-2-carboxamide], the 50% inhibitory concentration (IC50) was found to be 2890 nM.
In the case of `O=C(Nc1ccc(C(=O)N2CC3(CCCO3)C2)nn1)N1Cc2ccccc2C1` [Example 41, N-[6-(5-oxa-2-azaspiro[3.4]oct-2-ylcarbonyl)pyridazin-3-yl]-1,3-dihydro-2H-isoindole-2-carboxamide] it was 344 nM; in that of `O=C(NCC1(F)CCNCC1)c1ccc(NC(=O)N2Cc3ccccc3C2)nn1` [Example 43, N-(6-{[(4-fluoropiperidin-4-yl)methyl]carbamoyl}pyridazin-3-yl)-1,3-dihydro-2H-isoindole-2-carboxamide], 2880 nM.
Take `O=C(Nc1ccc(C(=O)N2CC3(COC3)C2)nn1)N1Cc2ccccc2C1` [Example 13, N-[6-(2-oxa-6-azaspiro[3.3]hept-6-ylcarbonyl)pyridazin-3-yl]-1,3-dihydro-2H-isoindole-2-carboxamide]: the 50% inhibitory concentration (IC50) turned out to be 626 nM.
In the case of `O=C(NCC1CC2(CNC2)CO1)c1ccc(NC(=O)N2Cc3ccccc3C2)nn1` (stereo not shown) [Example 45, N-{6-[(6-oxa-2-azaspiro[3.4]oct-7-ylmethyl)carbamoyl]pyridazin-3-yl}-1,3-dihydro-2H-isoindole-2-carboxamide], the half-inhibitory concentration (IC50) came to 2140 nM.
In the case of `CC1(CNC(=O)c2ccc(NC(=O)N3Cc4ccccc4C3)cc2)CCCO1` (stereo not shown) [Example 5, N-(4-{[(2-methyltetrahydrofuran-2-yl)methyl]carbamoyl}phenyl)-1,3-dihydro-2H-isoindole-2-carboxamide] it was 6.92 nM; in that of `O=C(Nc1ccc(C(=O)N2CCC3(CCOC3)C2)nn1)N1Cc2ccccc2C1` (stereo not shown) [Example 15, N-[6-(2-oxa-7-azaspiro[4.4]non-7-ylcarbonyl)pyridazin-3-yl]-1,3-dihydro-2H-isoindole-2-carboxamide], 578 nM; in that of `O=C(NC1COC2(CCNCC2)C1)c1ccc(NC(=O)N2Cc3ccccc3C2)nn1` (stereo not shown) [Example 38, N-[6-(1-oxa-8-azaspiro[4.5]dec-3-ylcarbamoyl)pyridazin-3-yl]-1,3-dihydro-2H-isoindole-2-carboxamide], 869 nM.
In the case of `O=C(Nc1ccc(C(=O)N2CC3COCC3C2)nn1)N1Cc2ccccc2C1` (stereo not shown) [Example 9, N-[6-(tetrahydro-1H-furo[3,4-c]pyrrol-5(3H)-ylcarbonyl)pyridazin-3-yl]-1,3-dihydro-2H-isoindole-2-carboxamide] it was 442 nM; in that of `O=C(Nc1ccc(C(=O)N2CCC3(CC2)CNC3)nn1)N1Cc2ccccc2C1` [Example 34, N-[6-(2,7-diazaspiro[3.5]non-7-ylcarbonyl)pyridazin-3-yl]-1,3-dihydro-2H-isoindole-2-carboxamide], 218 nM; in that of `O=C(Nc1ccc(C(=O)N2CCC3(CCCO3)C2)nn1)N1Cc2ccccc2C1` (stereo not shown) [Example 19, N-[6-(1-oxa-7-azaspiro[4.4]non-7-ylcarbonyl)pyridazin-3-yl]-1,3-dihydro-2H-isoindole-2-carboxamide], 394 nM.
Regarding `O=C(NCC1COC2(CCNCC2)C1)c1ccc(NC(=O)N2Cc3ccccc3C2)nn1` (stereo not shown) [Example 33, N-{6-[(1-oxa-8-azaspiro[4.5]dec-3-ylmethyl)carbamoyl]pyridazin-3-yl}-1,3-dihydro-2H-isoindole-2-carboxamide], the IC50 worked out at 284 nM.
In the case of `O=C(Nc1ccc(C(=O)N2CC3(CCNCC3)C2)nn1)N1Cc2ccccc2C1` [Example 29, N-[6-(2,7-diazaspiro[3.5]non-2-ylcarbonyl)pyridazin-3-yl]-1,3-dihydro-2H-isoindole-2-carboxamide] it was 454 nM.
`O=C(NCC1CC12CCNCC2)c1ccc(NC(=O)N2Cc3ccccc3C2)nn1` (stereo not shown) [Example 40, N-{6-[(6-azaspiro[2.5]oct-1-ylmethyl)carbamoyl]pyridazin-3-yl}-1,3-dihydro-2H-isoindole-2-carboxamide]: the half-maximal inhibitory concentration (IC50) stood at 648 nM.
To `O=C(NCC1CCC2(CCNCC2)O1)c1ccc(NC(=O)N2Cc3ccccc3C2)nn1` (stereo not shown) [Example 32, N-{6-[(1-oxa-8-azaspiro[4.5]dec-2-ylmethyl)carbamoyl]pyridazin-3-yl}-1,3-dihydro-2H-isoindole-2-carboxamide] belongs 782 nM; to `O=C(Nc1ccc(C(=O)N2CCC3(CNC3)C2)nn1)N1Cc2ccccc2C1` [Example 30, N-[6-(2,6-diazaspiro[3.4]oct-6-ylcarbonyl)pyridazin-3-yl]-1,3-dihydro-2H-isoindole-2-carboxamide], 7190 nM.
As to `O=C(Nc1ccc(C(=O)N2CC3(CCOCC3)C2)nn1)N1Cc2ccccc2C1` [Example 18, N-[6-(7-oxa-2-azaspiro[3.5]non-2-ylcarbonyl)pyridazin-3-yl]-1,3-dihydro-2H-isoindole-2-carboxamide], the IC50 was 388 nM.
With `O=C(Nc1ccc(C(=O)N2CCC(C3CNC3)C2)nn1)N1Cc2ccccc2C1` (stereo not shown) [Example 36, N-(6-{[3-(azetidin-3-yl)pyrrolidin-1-yl]carbonyl}pyridazin-3-yl)-1,3-dihydro-2H-isoindole-2-carboxamide], the IC50 was 791 nM.
Take `O=C(Nc1ccc(C(=O)N2CCC3(CCNC3)CC2)nn1)N1Cc2ccccc2C1` [Example 23, N-[6-(2,8-diazaspiro[4.5]dec-8-ylcarbonyl)pyridazin-3-yl]-1,3-dihydro-2H-isoindole-2-carboxamide]: the half-inhibitory concentration (IC50) is 140 nM.
In the case of `O=C(Nc1ccc(C(=O)N2CCC3(CCNCC3)C2C(F)(F)F)nn1)N1Cc2ccccc2C1` (stereo not shown) [Example 47, N-(6-{[1-(trifluoromethyl)-2,8-diazaspiro[4.5]dec-2-yl]carbonyl}pyridazin-3-yl)-1,3-dihydro-2H-isoindole-2-carboxamide] it was 5850 nM; in that of `O=C(Nc1ccc(C(=O)N2CCC3OCCC3C2)nn1)N1Cc2ccccc2C1` (stereo not shown) [Example 10, N-[6-(hexahydrofuro[3,2-c]pyridin-5(4H)-ylcarbonyl)pyridazin-3-yl]-1,3-dihydro-2H-isoindole-2-carboxamide], 952 nM.

The term IC50 denotes the concentration that inhibits the measured activity by half.
